Patent US6958142B2, “Nasal spray formulation and method” (Balance Pharmaceuticals, Inc., priority 2002, dated 2005)
≈ marks a conversion by molar mass, not a printed value. Where “and” joins values, the source holds several entries; their conditions need not be identical. Identical values can stand only once. Like-named read-outs stand apart in the source and are kept apart here.

How the values were obtained:
[1] = test system: bone mineral density of the lumbar spine; details: in vivo
Source text: Bone mineral density (BMD) of the lumbar spine was obtained by dual-energy X-ray absorptiometry (DEXA) prior to and after six months of drug treatment.

[2] = test system: heavy bleeding secondary to uterine leiomyomata; test: Example 3: bleeding score from daily bleeding calendars; format: in vivo, human
Method: (§2) The compound was administered using a commercially available nasal sprayer that delivered a 50 μL spray volume. The daily dose was administered by application of 50 μL to each nostril once per day, for a total daily volume of 100 μL. During the 12 week treatment period the patients kept daily bleeding calendars and underwent clinical assessments at scheduled intervals.
(§3) A 12 week study was performed to establish an effective dose of deslorelin for controlling heavy bleeding secondary to uterine leiomyomata. Forty-one premenopausal women completed the study and are identified as Subject Nos. 1 through 41. The women were divided into test groups for treatment with intranasal deslorelin as follows:
(§4) For one complete menstrual cycle prior to treatment, each woman completed a daily bleeding calendar. Eligible subjects were then treated with deslorelin at the assigned dosage once per day by intranasal application. During the 12 weeks of daily intranasal administration, each woman kept a daily bleeding calendar, completed quality of life questionnaires, and underwent clinical assessment and laboratory testing.

[3] = test system: premenopausal women with uterine leiomyomata; test: Example 3: uterine size (uterine volume from ultrasound); format: in vivo, human
Method: as §2, §3, §4

[4] = test system: ovarian estrogen and progesterone production; test: Example 3: serum hormone levels
Method: In a first study, deslorelin was administered alone to determine an appropriate dose for treatment of an exemplary benign gynecological disorder, uterine leiomyomata (fibroids). More specifically, the dose appropriate to control the heavy bleeding secondary to uterine leiomyomata was determined. […] The compound was administered using a commercially available nasal sprayer that delivered a 50 μL spray volume. The daily dose was administered by application of 50 μL to each nostril once per day, for a total daily volume of 100 μL. During the 12 week treatment period the patients kept daily bleeding calendars and underwent clinical assessments at scheduled intervals. Clinical assessments included grading of nasal irritation (Table 5A), determination of uterine size (Table 5B), and serum hormone levels (Table 5C).
Eligible subjects were then treated with deslorelin at the assigned dosage once per day by intranasal application. During the 12 weeks of daily intranasal administration, each woman kept a daily bleeding calendar, completed quality of life questionnaires, and underwent clinical assessment and laboratory testing. […] Clinical assessments included grading of nasal irritation (Table 5A), determination of uterine size (Table 5B), and serum hormone levels (Table 5C).

[5] = test system: premenopausal females with uterine fibroids; test: Example 8: reduction of bleeding into the normal range; format: in vivo, human; details: deslorelin 1 mg/day intranasal
Method: (§1) Premenopausal females (n=265) with uterine fibroids were recruited for participation in a 12 month double blind study. The women were randomly assigned to treatment in one of the following five study arms: Deslorelin at a daily dose of 1 mg was administered intranasally using a conventional metered spray delivery device. The intranasal preparation was a 100 μL daily nasal spray containing 1.0 mg deslorelin. […] Women with uterine fibroids often experience very heavy bleeding (menorrhagia) and uterine enlargement leading to pelvic pain and pressure symptoms. Clinical benefit was assessed by measuring changes in bleeding score (percent of subjects with reduction of bleeding into the normal range) and uterine volume. Shown in Table 9A are the percent of subjects responding (reduction of bleeding into the normal range) after 3 and 6 months of treatment.

[6] = test system: premenopausal females with uterine fibroids; test: Example 8: change in uterine volume; format: in vivo, human; details: 6 Months of treatment compared to baseline
Method: as §1

[7] = Serum testosterone average concentration over 24 hours after intranasal testosterone
Method: In another study, five women were treated with intranasal testosterone.

physchem = details: aqueous with cosolvent or surfactant or cyclodextrin, thermodynamic from solid
[8] = at 25° C.; cited from earlier work
[9] = Deslorelin 0.5 mg/day, Baseline
[10] = Deslorelin 0.5 mg/day, End of Week 4
[11] = Deslorelin 0.5 mg/day, End of Week 8
[12] = Deslorelin 0.5 mg/day, End of Week 12
[13] = Deslorelin 1 mg/day, End of Week 4
[14] = Deslorelin 1 mg/day, End of Week 8
[15] = Deslorelin 1 mg/day, End of Week 12
[16] = Deslorelin 2 mg/day, End of Week 4
[17] = Deslorelin 2 mg/day, End of Week 8
[18] = Deslorelin 2 mg/day, End of Week 12

SMILES: CCNC(=O)[C@@H]1CCCN1C(=O)[C@H](CCCN=C(N)N)NC(=O)[C@H](CC(C)C)NC(=O)[C@@H](Cc1c[nH]c2ccccc12)NC(=O)[C@H](Cc1ccc(O)cc1)NC(=O)[C@H](CO)NC(=O)[C@H](Cc1c[nH]c2ccccc12)NC(=O)[C@H](Cc1cnc[nH]1)NC(=O)[C@@H]1CCC(=O)N1 [Deslorelin, (pyro)Pro-His-Trp-Ser-Tyr-DTrp-Leu-Arg-Pro-ethylamide]
- Mean Ratio (BMD6 mo/BMDbaseline) [1]: 0.971
- Bleeding Score ([2]; Deslorelin 0.5 mg/day, Baseline Score, 0 no bleeding, 5 normal flow, 10 or greater menorrhagia): 10.9
- Bleeding Score ([2]; Deslorelin 0.5 mg/day, Weeks 1-4): 6.6
- Bleeding Score ([2]; Deslorelin 0.5 mg/day, Weeks 5-8): 3.5
- Bleeding Score ([2]; Deslorelin 0.5 mg/day, Weeks 9-12): 2.6
- Bleeding Score ([2]; Deslorelin 1 mg/day, Baseline Score): 10.8
- Bleeding Score ([2]; Deslorelin 1 mg/day, Weeks 1-4): 7.8
- Bleeding Score ([2]; Deslorelin 1 mg/day, Weeks 5-8): 0.4
- Bleeding Score ([2]; Deslorelin 1 mg/day, Weeks 9-12): 1.7
- Bleeding Score ([2]; Deslorelin 2 mg/day, Baseline Score): 14.1
- Bleeding Score ([2]; Deslorelin 2 mg/day, Weeks 1-4): 6.6
- Bleeding Score ([2]; Deslorelin 2 mg/day, Weeks 5-8): 1.2
- Bleeding Score ([2]; Deslorelin 2 mg/day, Weeks 9-12): 0.6
- effectiveness (in words) ([2]; all tested doses (0.5, 1.0, 2.0 mg/day)): partially or completely effective with reduction of bleeding, associated pain, and uterine size
- bleeding score (in words) ([2]; end of the 12 week study): marked improvement in their bleeding score
- uterine volume calculated from ultrasound determined dimensions (in words) ([3]; 0.5, 1.0, 2.0 mg/day, 12 weeks): reduction in uterine volume
- Uterine Size Mean Difference (end of week 12 minus baseline uterine volume) ([3]; Deslorelin 0.5 mg/day intranasal): −109.6 cm^3
- Uterine Size Mean Difference (end of week 12 minus baseline uterine volume) ([3]; Deslorelin 1 mg/day intranasal): −63.6 cm^3
- Uterine Size Mean Difference (end of week 12 minus baseline uterine volume) ([3]; Deslorelin 2 mg/day intranasal): −246.5 cm^3
- Hormone Levels: Estradiol [4, 9]: 173 pg/mL
- Hormone Levels: Progesterone [4, 9]: 641 ng/dL
- Hormone Levels: Testosterone [4, 9]: 24 ng/dL
- Hormone Levels: Estradiol [4, 10]: 47 pg/mL
- Hormone Levels: Progesterone [4, 10]: 40 ng/dL
- Hormone Levels: Testosterone [4, 10]: 19 ng/dL
- Hormone Levels: Estradiol [4, 11]: 79 pg/mL
- Hormone Levels: Progesterone [4, 11]: 30 ng/dL
- Hormone Levels: Testosterone [4, 11]: 22 ng/dL
- Hormone Levels: Estradiol [4, 12]: 66 pg/mL
- Hormone Levels: Progesterone [4, 12]: 37 ng/dL
- Hormone Levels: Testosterone [4, 12]: 23 ng/dL
- Hormone Levels: Estradiol ([4]; Deslorelin 1 mg/day, Baseline): 123 pg/mL
- Hormone Levels: Progesterone ([4]; Deslorelin 1 mg/day, Baseline): 480 ng/dL
- Hormone Levels: Testosterone ([4]; Deslorelin 1 mg/day, Baseline): 26 ng/dL
- Hormone Levels: Estradiol [4, 13]: 51 pg/mL
- Hormone Levels: Progesterone [4, 13]: 12 ng/dL
- Hormone Levels: Testosterone [4, 13]: 22 ng/dL
- Hormone Levels: Estradiol [4, 14]: 95 pg/mL
- Hormone Levels: Progesterone [4, 14]: 25 ng/dL
- Hormone Levels: Testosterone [4, 14]: 20 ng/dL
- Hormone Levels: Estradiol [4, 15]: 30 pg/mL
- Hormone Levels: Progesterone [4, 15]: 10 ng/dL
- Hormone Levels: Testosterone [4, 15]: 16 ng/dL
- Hormone Levels: Estradiol ([4]; Deslorelin 2 mg/day, Baseline): 184 pg/mL
- Hormone Levels: Progesterone ([4]; Deslorelin 2 mg/day, Baseline): 337 ng/dL
- Hormone Levels: Testosterone ([4]; Deslorelin 2 mg/day, Baseline): 34 ng/dL
- Hormone Levels: Estradiol [4, 16]: 14 pg/mL
- Hormone Levels: Progesterone [4, 16]: 12 ng/dL
- Hormone Levels: Testosterone [4, 16]: 16 ng/dL
- Hormone Levels: Estradiol [4, 17]: 31 pg/mL
- Hormone Levels: Progesterone [4, 17]: 14 ng/dL
- Hormone Levels: Testosterone [4, 17]: 20 ng/dL
- Hormone Levels: Estradiol [4, 18]: 30 pg/mL
- Hormone Levels: Progesterone [4, 18]: 13 ng/dL
- Hormone Levels: Testosterone [4, 18]: 20 ng/dL
- % with reduction of bleeding into the normal range ([5]; 3 Months): 69%
- % with reduction of bleeding into the normal range ([5]; 6 Months): 92%
- Proportion of Initial Volume (uterine volume) [6]: 0.675

SMILES: C[C@]12CC[C@H]3[C@@H](CCC4=CC(=O)CC[C@@]43C)[C@@H]1CC[C@@H]2O [Testosterone, testosterone]
- Molar Ratio steroid/HPβCD (both steroids together, HPβCD 10 mg/mL): 0.31
- Molar Ratio steroid/HPβCD (both steroids together, HPβCD 40 mg/mL): 0.34
- Molar Ratio steroid/HPβCD (both steroids together, HPβCD 70 mg/mL): 0.35
- Molar Ratio steroid/HPβCD (both steroids together, HPβCD 100 mg/mL): 0.34
- Molar Ratio steroid/HPβCD (both steroids together, HPβCD 130 mg/mL): 0.39
- Molar Ratio steroid/HPβCD (both steroids together, HPβCD 160 mg/mL): 0.40
- Molar Ratio steroid/HPβCD (both steroids together, HPβCD 190 mg/mL): 0.40
- Molar Ratio steroid/HPβCD (both steroids together, HPβCD 250 mg/mL): 0.38
- Molar Ratio steroid/HPβCD (steroid alone, HPβCD 10 mg/mL): 0.39
- Molar Ratio steroid/HPβCD (steroid alone, HPβCD 40 mg/mL): 0.30
- Molar Ratio steroid/HPβCD (steroid alone, HPβCD 70 mg/mL): 0.38
- Molar Ratio steroid/HPβCD (steroid alone, HPβCD 100 mg/mL): 0.33
- Molar Ratio steroid/HPβCD (steroid alone, HPβCD 130 mg/mL): 0.43
- Molar Ratio steroid/HPβCD (steroid alone, HPβCD 160 mg/mL): 0.41
- Molar Ratio steroid/HPβCD (steroid alone, HPβCD 190 mg/mL): 0.42
- Molar Ratio steroid/HPβCD (steroid alone, HPβCD 220 mg/mL): 0.40
- Molar Ratio steroid/HPβCD (steroid alone, HPβCD 250 mg/mL): 0.41
- Testosterone average concentration over 24 hours ([7]; intranasal 250 μg testosterone in preparation with deslorelin and estradiol, Day 1, individual subjects): 26.7 ng/dL (2×) and 19.0 ng/dL and 18.8 ng/dL and 19.1 ng/dL
- Testosterone average concentration over 24 hours ([7]; intranasal 250 μg testosterone in preparation with deslorelin and estradiol, Day 8, individual subjects): 29.9 ng/dL and 17.1 ng/dL and 16.5 ng/dL and 16.2 ng/dL and 24.1 ng/dL
- Testosterone average concentration over 24 hours ([7]; intranasal 250 μg testosterone, average of both observations (Day 1, Day 8) in each of the 5 subjects): 21.4 ng/dL
- solubility (physchem; Estradiol and Testosterone solubility, both steroids together in aqueous HPβCD 10 mg/mL): 0.658 mg/mL (≈ 2.28 mM)
- solubility (physchem; Estradiol and Testosterone solubility, both steroids together in aqueous HPβCD 40 mg/mL): 2.82 mg/mL (≈ 9.77 mM)
- solubility (physchem; Estradiol and Testosterone solubility, both steroids together in aqueous HPβCD 70 mg/mL): 5.07 mg/mL (≈ 17.6 mM)
- solubility (physchem; Estradiol and Testosterone solubility, both steroids together in aqueous HPβCD 100 mg/mL): 7.11 mg/mL (≈ 24.7 mM)
- solubility (physchem; Estradiol and Testosterone solubility, both steroids together in aqueous HPβCD 130 mg/mL): 10.6 mg/mL (≈ 36.6 mM)
- solubility (physchem; Estradiol and Testosterone solubility, both steroids together in aqueous HPβCD 160 mg/mL): 13.4 mg/mL (≈ 46.5 mM)
- solubility (physchem; Estradiol and Testosterone solubility, both steroids together in aqueous HPβCD 190 mg/mL): 15.7 mg/mL (≈ 54.6 mM)
- solubility (physchem; Estradiol and Testosterone solubility, both steroids together in aqueous HPβCD 250 mg/mL): 20 mg/mL (≈ 69.3 mM)
- solubility (physchem; solubility, steroid alone in aqueous HPβCD 10 mg/mL): 0.81 mg/mL (≈ 2.81 mM)
- solubility (physchem; solubility, steroid alone in aqueous HPβCD 40 mg/mL): 2.54 mg/mL (≈ 8.81 mM)
- solubility (physchem; solubility, steroid alone in aqueous HPβCD 70 mg/mL): 5.63 mg/mL (≈ 19.5 mM)
- solubility (physchem; solubility, steroid alone in aqueous HPβCD 100 mg/mL): 6.82 mg/mL (≈ 23.6 mM)
- solubility (physchem; solubility, steroid alone in aqueous HPβCD 130 mg/mL): 11.6 mg/mL (≈ 40.4 mM)
- solubility (physchem; solubility, steroid alone in aqueous HPβCD 160 mg/mL): 13.9 mg/mL (≈ 48.1 mM)
- solubility (physchem; solubility, steroid alone in aqueous HPβCD 190 mg/mL): 16.5 mg/mL (≈ 57.3 mM)
- solubility (physchem; solubility, steroid alone in aqueous HPβCD 220 mg/mL): 18.6 mg/mL (≈ 64.5 mM)
- solubility (physchem; solubility, steroid alone in aqueous HPβCD 250 mg/mL): 21.7 mg/mL (≈ 75.2 mM)

SMILES: OC[C@H]1O[C@@H]2O[C@H]3[C@H](O)[C@@H](O)[C@@H](O[C@H]4[C@H](O)[C@@H](O)[C@@H](O[C@H]5[C@H](O)[C@@H](O)[C@@H](O[C@H]6[C@H](O)[C@@H](O)[C@@H](O[C@H]7[C@H](O)[C@@H](O)[C@@H](O[C@H]8[C@H](O)[C@@H](O)[C@@H](O[C@H]9[C@H](O)[C@@H](O)[C@@H](O[C@H]%10[C@H](O)[C@@H](O)[C@@H](O[C@H]1[C@H](O)[C@H]2O)O[C@@H]%10CO)O[C@@H]9CO)O[C@@H]8CO)O[C@@H]7CO)O[C@@H]6CO)O[C@@H]5CO)O[C@@H]4CO)O[C@@H]3CO [δ-cyclodextrin]
- water solubility [8]: 8.19 g/100 mL
